# Experiments:
# [1] = tested on: giant foxtail; test: Test A pre-/postemergence herbicide test; assay type: in vivo, Setaria faberi
# Method in brief: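 Visual injury rating on a 0–100 scale (0 no effect, 100 complete control) versus untreated controls, about ten days after treatment in greenhouse. Pre: directed soil spray onto seeded sandy loam. Post: spray to runoff on plants 2–10 cm tall at one- to two-leaf stage.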
# [2] = tested on: wheat; test: Test B postemergence herbicide test; assay type: in vivo, Triticum aestivum; set-up: key to Wheat plant response rating: 0 = no effect, 100 = complete control; conditions: postemergence
# Method in brief: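 Plants grow to 1- to 4-leaf stage (2–18 cm) for postemergence spraying, or to 2-leaf stage for the paddy test. Formulated compound is applied. Greenhouse holding lasts 13–15 days. Response is scored visually relative to controls, 0 no effect to 100 complete control; a dash means no result.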
# [3] = tested on: barnyardgrass; test: Test B flooded paddy test; assay type: in vivo, Echinochloa crus-galli; conditions: 1000 g ai/ha, scale 0 to 100 (0 no effect, 100 complete control)
# Method in brief: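 Visual ratings, 0 (no effect) to 100 (complete control), made versus controls after 13–15 d greenhouse. Paddy plants treated at 2-leaf stage; postemergence plants at 1- to 4-leaf stage, 2–18 cm tall.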
# [4] = tested on: large crabgrass; test: Test C pre-/postemergence herbicide test; assay type: in vivo, Digitaria sanguinalis; conditions: preemergence
# Method in brief: (§1)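 Pre- and postemergence application, solvent/surfactant formulation; post at 1- to 4-leaf stage (2–18 cm). Greenhouse 12–14 d. Visual rating vs controls, 0 = no effect, 100 = complete control.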
# [5] = tested on: woolly cupgrass; test: Test C pre-/postemergence herbicide test; assay type: in vivo, Eriochloa villosa; conditions: preemergence
# Method in brief: as §1
# [6] = tested on: eastern black nightshade; test: Test C pre-/postemergence herbicide test; assay type: in vivo, Solanum ptycanthum; conditions: preemergence
# Method in brief: as §1
# [7] = tested on: yellow nutsedge; test: Test C pre-/postemergence herbicide test; assay type: in vivo, Cyperus esculentus; conditions: preemergence
# Method in brief: as §1
# [8] = tested on: rice; test: Test C flooded paddy test; assay type: in vivo, Oryza sativa
# Method in brief: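 Postemergence sprays applied to plants 2 to 18 cm tall (1- to 4-leaf stage); paddy species grown to 2-leaf stage under flooding. After 12 to 14 days in greenhouse, visual rating versus untreated controls on 0–100 scale (0 no effect, 100 complete control).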
# [9] = tested on: barnyardgrass; test: Test C flooded paddy test; assay type: in vivo, Echinochloa crus-galli
# Method in brief: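 Visual rating, 0 (no effect) to 100 (complete control), vs. controls at 12–14 d in greenhouse. Postemergence: 1–4-leaf plants, 2–18 cm. Paddy: flooded, barnyardgrass at 2-leaf stage.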
# [10] = 125 g ai/ha, scale 0 (no effect) to 100 (complete control), visual, 12 to 14 days
# [11] = 125 g ai/ha, scale 0 to 100 (0 no effect, 100 complete control)
# [12] = 250 g ai/ha, scale of 0 to 100, 0 is no effect, 100 is complete control
# [13] = 500 g ai/ha, visual rating after 12 to 14 days, scale 0 to 100 (0 no effect, 100 complete control)
compound,measurement,setting,value
CCNC(=O)c1ccc(F)c(NC(=O)c2cc(C3(C)CC3)nn2CC)c1 [Compound 300],"Foxtail, Giant plant response rating","[1]; Postemergence, 500 g ai/ha, 0 to 100 scale, 0 no effect, 100 complete control",55
same,"Plant response rating, Foxtail, Giant","[1]; Postemergence, 2000 g ai/ha, 0 to 100 scale, 0 no effect, 100 complete control",90
same,"Foxtail, Giant plant response rating","[1]; Preemergence, 2000 g ai/ha, visual rating, 0 to 100 scale (0 no effect, 100 complete control)",100
same,"Foxtail, Giant plant response rating","[1]; preemergence, 500 g ai/ha, visual injury, 0 to 100 scale (0 no effect, 100 complete control)",95
same,Wheat plant response rating,"[2]; 125 g ai/ha, visual rating, scale 0 (no effect) to 100 (complete control)",10
same,Wheat plant response rating,"[2]; 500 g ai/ha, scale 0 to 100, 0 is no effect, 100 is complete control",20
same,Barnyardgrass plant response rating,[3],90
same,"Plant response rating, Crabgrass, Large","[4]; 62 g ai/ha, scale 0 to 100",100
same,"Plant response rating, Crabgrass, Large",[4]; [10],100
same,"Plant response rating, Crabgrass, Large","[4]; 250 g ai/ha, scale 0-100",100
same,"Plant response rating, Cupgrass, Woolly","[5]; 62 g ai/ha, scale 0 to 100",20
same,"Plant response rating, Cupgrass, Woolly",[5]; [10],50
same,"Plant response rating, Cupgrass, Woolly","[5]; 250 g ai/ha, scale 0-100",60
same,"Plant response rating, Nightshade","[6]; 62 g ai/ha, scale 0 to 100",100
same,"Plant response rating, Nightshade",[6]; [10],100
same,"Plant response rating, Nightshade","[6]; 250 g ai/ha, scale 0-100",100
same,"Plant response rating, Nutsedge, Yellow","[7]; 31 g ai/ha, scale 0 to 100, last section of Table C",0
same,"Plant response rating, Nutsedge, Yellow","[7]; 62 g ai/ha, scale 0 to 100",0
same,"Plant response rating, Nutsedge, Yellow",[7]; [10],20
same,"Plant response rating, Nutsedge, Yellow","[7]; 250 g ai/ha, scale 0-100",60
same,Rice plant response rating,"[8]; 62 g ai/ha, scale 0 to 100",40
same,Rice plant response rating,[8]; [11],55
same,Rice plant response rating,[8]; [12],70
same,"Plant response rating, Rice",[8]; [13],75
same,Barnyardgrass plant response rating,"[9]; 62 g ai/ha, scale 0 to 100 (0 no effect, 100 complete control)",35
same,Barnyardgrass plant response rating,[9]; [11],50
same,Barnyardgrass plant response rating,[9]; [12],90
same,"Plant response rating, Barnyardgrass",[9]; [13],95

# Source: patent US20060069132A1, “Azolecarboxamide herbicides” (priority 2004, published 2006)
